From patent publication US6506431B2, “Spore germination inhibitor and food containing the same” (Ajinomoto Co., Inc., priority 2000, dated 2003)

Assays:
Bacillus subtilis spores [1] = assay: Spore germination-inhibitory effects by CPC, AGFK germinator (Example 2); format: cell-based; conditions: 1 mg/ml CPC, 37° C., 2 hours
Experimental: The germination-inhibitory activity was measured as follows: ½ volume of a sample was allowed to react with ½ volume of spore suspension (0.2 mg/ml Bacillus subtilis spores, 40 mM Tris HCl, pH 7.5) containing germinator (20 mM L-asparagine, 2 mM D-glucose, 2 mM D-fructose, 20 mM KCl) at 37° C. The spores gradually darkened with germination increase, and turbidity of the suspension decreased. Thereupon, the turbidity of the spore suspension was measured at 600 nm using a spectrophotometer, and a germination rate was determined by calculating the rate of decrease of turbidity. In order to examine the germination-inhibitory effects of CPC, the following tests were conducted. Spore suspension containing 0.1 mg/ml Bacillus subtilis spores, 20 mM Tris.HCl, pH 7.5. Spore suspension as above further containing 10 mM L-asparagine, 1 mM D-glucose, 1 mM D-fructose and 10 mM KCl as germinator. Spore suspension as above containing the germination (Test Group 2) and further containing 1 mg/ml CPC. The above spore suspensions were allowed to react at 37° C. for 2 hours, and spore germination conditions were examined. The turbidity of each test group after 2 hours was measured at 600 nm using a spectrophotometer. In the test group 2, the turbidity of the spore suspension was decreased remarkably compared with the start of the reaction, and sufficient germination of spores was found. […]

[2] = Solubility of CPC (properties); format: physicochemical
Bacillus subtilis spores [3] = assay: Germination inhibition by combination of CPC and D-alanine in sufficient nutrients (Example 3); format: cell-based; conditions: 1 mg/ml each; for variation of the turbidity of the spore suspension at 600 nm (germination): 25 g/l Bacto-LB broth plus AGFK germinator, 37° C., 2 hours; for inhibition at 1000 µg/mL: Bacillus subtilis, 0.5 h, LB broth plus AGFK, variation of OD600 for 30 minutes, test group 1 = 100%, test group 2 = 0%, read-out: germination inhibition rate
Experimental: Thereupon, in order to examine germination-inhibitory effects by the combination of CPC and D-alanine which is a known germination-inhibitory substance, the following test groups were prepared. Spore suspension containing 0.1 mg/ml Bacillus subtilis spores, 20 mM Tris.HCl, pH 7.5. Spore suspension containing 0.1 mg/ml Bacillus subtilis, 25 g/l Bacto-LB broth, Miller (DIFCO) as sufficient nutrients, and 10 mM L-asparagine, 1 mM D-glucose, 1 mM D-fructose and 10 mM KCl (AGFK system) as germinator. Spore suspension as above containing the sufficient nutrients (Test Group 2) and further containing 1 mg/ml CPC. Spore suspension as above containing the sufficient nutrients (Test Group 2) and further containing 1 mg/ml D-alanine. Spore suspension as above containing the sufficient nutrients (Test Group 2) and further containing 1 mg/ml CPC and 1 mg/ml D-alanine. The above spore suspensions were allowed to react at 37° C. for 2 hours, and spore germination conditions were examined. The variation of the turbidity of each test group was measured through the above reaction at 600 nm using a spectrophotometer. […] After 2 hours, the turbidity became the same turbidity as the initial one, and growth subsequest to the germination (vegetative growth) was observed. […] Each inhibition rate was calculated based on the variation of OD600 value for 30 minutes from the start of measurement wherein the germination inhibition rate in the test group 1 is assigned 100% and that in the test group 2 is assigned 0%.

Structure (SMILES)	spore germination observed by phase-contrast microscope (Bacillus subtilis spores [1]; AGFK germinator)	spore germination by turbidity of the spore suspension at 600 nm (Bacillus subtilis spores [1]; germinator 10 mM L-asparagine, 1 mM D-glucose, 1 mM D-fructose, 10 mM KCl)	solubility [2]	variation of the turbidity of the spore suspension at 600 nm (germination) (Bacillus subtilis spores [3])	inhibition at 1000 µg/mL (Bacillus subtilis spores [3]) [%]
NC(=O)c1cccc(C(=O)O)n1 [CPC, 6-carbamoyl-2-pyridine carboxylic acid]	germination of spores was not recognized	germination was not observed	Soluble in water, particularly alkaline water, and organic solvent, such as pyridine and DMSO	growth subsequent to the germination was observed	9
C[C@@H](N)C(=O)O [D-alanine, reference compound]				growth subsequent to the germination was observed	16
